Consider two sequences from US8901071B2, “Compounds and their use” (Novabiotics Limited, priority 2010, dated 2014).

No end group written: not given here.

In data set [1] the test system is mice. In words: lethality of peptide in mice. The class given is in vivo. The settings on record: dose of around 5 mg/kg.
Data set [2] has as its system S. aureus bacterial biofilms. In words: bacterial biofilm assay, Example 2 (optical density at 625 nm; FIGS. 5-6). The data set is classed as cell-based. The settings on record: biofilm grown 18 hours, 24 hours incubation, 0 to 1 mg/ml, combinations in equal concentration. The procedure:
(§1) P. aeruginosa bacterial biofilms and S. aureus bacterial biofilms were grown in Mueller-Hinton agar in separate 96-well microtitre plates for 18 hours at 37 degrees Celsius. The planktonic cells and medium were then removed and the bacterial biofilms were washed three times with phosphate buffer solution at a pH of around 7. Two-fold dilutions of three different antimicrobial agents in Mueller Hinton broth were then added to the bacterial biofilms. The microtitre plates were incubated at 37 degrees Celsius for 24 hours. The medium was then transferred to a fresh microtitre plate and the optical density of the bacterial biofilm was measured at 625 nm on a microtitre plate reader (BioTek Powerwave, X S, Winooski, USA.
(§2) The antimicrobial agents tested were NP432 alone, a combination of NP432 and NM001 in equal concentration, a combination of NP432 and NP 108 in equal concentration, NP445 alone, a combination of NP445 and NM001 in equal concentration, a combination of NP445 and NP 108 in equal concentration. The antimicrobial agents were tested at concentrations of 0 to 1 mg/ml against P. aeruginosa bacterial biofilms and S. aureus bacterial biofilms.

Data set [3] has as its system P. aeruginosa bacterial biofilms. The experiment in a line: bacterial biofilm assay, Example 2 (optical density at 625 nm; FIGS. 3-4). The data set is classed as cell-based. The settings on record: biofilm grown 18 hours, 24 hours incubation, 0 to 1 mg/ml, combinations in equal concentration. The procedure:
as §1, §2

Consider RRRFRFFFRFRRR [NP432, RRRFRFFFRFRRR], for which the lethality to mice result in data set [1] was “non-lethal”. Take “KKFPWRLRLRYGRR (sythetic peptide) [NP445]”: the “antimicrobial effect against S. aureus bacterial biofilm” value in data set [2] is on record as “antimicrobial effect”. Moreover, the “antimicrobial effect against P. aeruginosa bacterial biofilms” value in data set [3] is given as “antimicrobial effect”.
